US9526705B2, “Lipidated glycosaminoglycan particles and their use in drug and gene delivery for diagnosis and therapy” (Tel-Aviv University Future Technology Development L.P., priority 2001, dated 2016)
Blank lines part the entries; values can stand above or below the molecule they belong to.

Key:
[1] = Efficiency of entrapment in gagomers (absorbency, ELISA plate reader); assay type: physicochemical
Description: The efficiency of entrapment of drugs or other bioactive agents in the gagomers and the kinetics of drug efflux for small molecular weight drugs were determined using absorbency in an ELISA plate reader, with appropriate wavelengths for each given entrapped entity.

[2] = calculated from efflux rate constant, 50 minutes incubation
Description: The independent variable is time. The dependent variable (f) is the percentage of drug released at time=t with respect to the total drug in the system at time t=0.

B16F10 (mouse melanoma) = test: Tumor metastasis model: lung metastases after i.v. B16F10 cells; assay type: in vivo, C57BL/6 mice; conditions: day 21
Description: C57BL/6 female mice were used, which were 12 weeks old at initiation of the experiment. […] The DDS system was LLG in the form of nano particles. The test system was MMC formulated in the novel DDS of the present invention, denoted MMC/DDS.
Group 1 is a control group of healthy mice that were not inoculated with tumor cells.
B16F10 cells were grown in cell culture flasks. […] The injected dose was 5×10^5 cells in 50 μl PBS.
Treatments were given on days 1, 5 and 9. […] All injected volumes were 0.1 ml. The experiment was terminated 21 days post tumor inoculation. The animals were sacrificed, and the lungs were removed, weighed, and fixed in Bouin's solution. Lung weight increase was calculated using the following formula: Lung weight increase(%)=100×(tumor lung weight−normal lung weight)/normal lung weight Surface metastases were counted by an expert using a dissecting microscope.
Quantitative evaluation of metastases in the lungs can be performed by two independent measurements: actual counting of the metastases in excised and properly fixed lungs; and/or measurement of the increase in the weight of the lungs due to the metastases in the animals injected with tumor cells. Both techniques were implemented in the present study.

[3] = test system: cell line C26 (mouse colon carcinoma); conditions: 4 hours exposure, viable cells 24 hours from start, MMC 30 and 50 μg/ml
Description: This is an inherent multidrug resistant (MDR) line originating from mouse colon carcinoma.

[4] = test system: C-26 cells (mouse colon carcinoma); conditions: Run 1
Description: Female BALB/c mice which were 8 weeks old at initiation of the experiment were used. The tumor model employed was C-26 cells (originating from mouse colon carcinoma) injected subcutaneously into the right hind footpad. […] The MMC dose was 2 mg/kg body, in both free and DDS formulations and the DDS dose was 1 mg/ml.
To provide the tumor, C-26 cells were grown in cell culture flasks. At day zero, the cells were harvested, washed several times, counted and immediately injected. The injected dose was 8×10^5 cells in 30 μl.
(§1) Treatments were given on days 5, 12 and 19. Administration was by injection into the tail vein. All injected volumes were 0.1 ml.
Parameters measured for Run 1 were retention in circulation, tumor onset, tumor volume, survival. Parameters measured for Run 2 were survival.

[5] = i.v. tail vein, MMC 2 mg/kg
Description: Female BALB/c mice which were 8 weeks old at initiation of the experiment were used. […] The MMC dose was 2 mg/kg body, in both free and DDS formulations and the DDS dose was 1 mg/ml.
as §1
At selected periods post-injection, animals receiving drug-containing formulations were bled, and samples were treated according to established protocols. MMC concentration was determined by HPLC assay.

[6] = test system: MCF7 cells (human breast carcinoma); test: BSA-FITC entry into cells, confocal microscopy; assay type: cell-based; conditions: MCF7, 3.3 mg/ml, 25° C., 60 minutes
Description: Bovine serum albumin tagged with the fluorescent marker FITC (BSA-FITC) in both free form and entrapped in the DDS was used to determine whether DDS can also induce the entry of large macromolecules into cells. The free and the DDS-entrapped BSA-FITC were incubated at 25° C. for 60 minutes with confluent monolayers of MCF7 cells (originating from human breast carcinoma). MCF-7 cells are reported to have two known receptors for hyaluronic acid—ICAM-1 and CD44. The protein/DDS systems were cleaned from the free protein. The free and the entrapped protein were at the same concentration: 3.3 mg/ml. At the end of the incubation the cells were viewed by means of confocal microscopy.

Encapsulation Efficiency (%) By Kinetics ([1]; Micro-gagomers): 30.5 ± 1.9% | Encapsulation Efficiency (%) By Thermodynamics ([1]; Micro-gagomers): 39.3 ± 3.9% | Encapsulation Efficiency (%) By Kinetics ([1]; Nano-gagomers): 47.1 ± 1.5% | Encapsulation Efficiency (%) By Thermodynamics ([1]; Nano-gagomers): 47.4 ± 0.3%
Molecule: O=C(N[C@H](CO)[C@H](O)c1ccc([N+](=O)[O-])cc1)C(Cl)Cl [Chloramphenicol]

Molecule: COc1cccc2c1C(=O)c1c(O)c3c(c(O)c1C2=O)C[C@@](O)(C(=O)CO)C[C@@H]3O[C@H]1C[C@H](N)[C@H](O)[C@H](C)O1 [Doxorubicin, doxorubicin]
Encapsulation Efficiency (%) By Kinetics ([1]; Micro-gagomers): 50.2 ± 1.2% | Encapsulation Efficiency (%) By Thermodynamics ([1]; Micro-gagomers): 52.4 ± 6.3% | Encapsulation Efficiency (%) By Kinetics ([1]; Nano-gagomers): 53.6 ± 0.9% | Encapsulation Efficiency (%) By Thermodynamics ([1]; Nano-gagomers): 57.0 ± 3.7%

Molecule: CC[n+]1c(-c2ccccc2)c2cc(N)ccc2c2ccc(N)cc21 [EtBr, ethidium bromide]
efflux of the entrapped marker in the course of the incubation [2]: ≤ 2%

Molecule: CO[C@@]12[C@H](COC(N)=O)C3=C(C(=O)C(C)=C(N)C3=O)N1C[C@@H]1N[C@@H]12 [Mitomycin C, mitomycin C]
increase in lung weight, in words (B16F10 (mouse melanoma); saline group close to 400%): almost the same | number of lung metastases versus saline group (B16F10 (mouse melanoma); lungs, MMC 5 mg/Kg): no statistical difference | cell death (compared to untreated control) [3]: under 15% | increase in tumor volume / tumor growth rate ([4]; 3 i.v. doses): not much different than in the saline group | day on which tumor was first detected ([4]; treatments on days 5, 12 and 19, MMC 2 mg/kg): 7 days | retention in circulation [5]: disappears very quickly from the circulation

Molecule: free BSA-FITC: Bovine serum albumin tagged with the fluorescent marker FITC, free form
protein entry into the cells [6]: Some of the protein gained entry into the cell | protein entry into the nucleus [6]: not inside the nucleus

Molecule: α-Interferon
Encapsulation Efficiency (%) ([1]; DDS microparticles, insulin concentration 10 mg/ml): 72.5 ± 3.7%
